test system: purified polypeptide (carbonyl reductase) from the Brevundimonas diminuta NBRC 12697 strain; experiment: Substrate specificity of purified polypeptide: reducing activity against carbonyl compounds (NADH decrease at 340 nm); assay type: biochemical; conditions: substrate 2 mM, NADH 0.167 mM, 100 mM phosphate buffer pH 6.5, 0.4% (v/v) DMSO, 30° C., 3 minutes; activity against ethyl N-Boc-2-amino-3-cyclohexyl-3-oxopropionate taken as 100%

Point of comparison: `O=Cc1cccc(Cl)c1` [m-chlorobenzaldehyde], relative activity 2138%. Against it:
- CCOC(=O)C(NC(=O)OC(C)(C)C)C(=O)C1CCCCC1 (centres unmarked) [Ethyl N-Boc-2-amino-3-cyclohexyl-3-oxopropionate] — lower, 100%
- CC(C=O)c1ccccc1 (centres unmarked) [2-phenylpropionaldehyde] — lower, 621%
- O=C(CCl)c1ccccc1 [2-chloroacetophenone] — higher, 12789%
- CC(=O)c1ccncc1 [4-acetylpyrridine] — lower, 1149%
- O=C(CCl)c1cccc(Cl)c1 [2,3′-dichloroacetophenone] — higher, 12719%
- CC(=O)C=O [methylglyoxal] — lower, 248%
- CCOC(=O)C(Cl)C(=O)c1ccccc1 (centres unmarked) [Ethyl 2-chloro-3-oxo-3-phenylpropionate] — lower, 1139%
- COC(=O)CC(C)=O [Methyl acetoacetate] — lower, 1095%
- O=C(c1ccccc1)C(F)(F)F [2,2,2-trifluoroacetophenone] — higher, 42277%
- CCCCC(C)=O [2-hexanone] — lower, 1540%
- O=Cc1ccccc1Cl [o-chlorobenzaldehyde] — lower, 1219%
- CC(=O)C(C)=O [diacetyl] — higher, 4830%
- CC(=O)c1ccc(Cl)cc1 [p-chloroacetophenone] — lower, 534%
- O=Cc1ccc(Cl)cc1 [p-chlorobenzaldehyde] — lower, 445%
- CC12CCC(C(=O)C1=O)C2(C)C (centres unmarked) [camphorquinone] — higher, 4737%
- CCOC(=O)C1CCCC1=O (centres unmarked) [Ethyl 2-oxocyclopentanecarboxylate] — lower, 199%
- CCOC(=O)CC(=O)CCl [Ethyl 4-chloroacetoacetate] — higher, 533470%
- CC(=O)c1cccc(Cl)c1 [m-chloroacetophenone] — higher, 4368%
- O=C1CCSC1 [tetrahydrothiophen-3-one] — lower, 156%
- CC(=O)CC(C)=O [acetylacetone] — lower, 273%
- CCCCCC=O [n-hexylaldehyde] — higher, 2160%
- CC(=O)c1ccco1 [2-acetylfuran] — lower, 164%
- COC(=O)C(C)=O [Methyl pyruvate] — higher, 5625%
- CCOC(=O)C(=O)c1ccccc1 [Ethyl benzoylformate] — higher, 12198%
- CCCC(=O)C(=O)OCC [Ethyl 2-oxopentanoate] — higher, 6046%
- CCOC(=O)C(Cl)C(C)=O (centres unmarked) [Ethyl 2-chloroacetoacetate] — higher, 7264%
- CC(=O)c1ccccc1Cl [o-chloroacetophenone] — lower, 350%
- CCOC(=O)C(C)C(C)=O (centres unmarked) [Ethyl 2-methylacetoacetate] — lower, 425%

Reference: patent publication US8304216B2, “Method for production of erythro-or threo-2-amino-3-hydroxypropionic acid ester, novel carbonyl reductase, gene for the reductase, vector, transformant, and method for production of optically active alcohol using those” (Kaneka Corporation, priority 2006, dated 2012)
